In turn, `CCOC(=O)CNC(=O)CC(=O)CCl` came in with a melting point of 96 to 97 °C.

Regarding `COC(=O)c1ccc(-c2nnc(-c3ccc(OC(F)(F)C(F)(F)F)cc3)o2)cc1`, the melting point fell in the range of 185 to 191 °C.

Regarding `O=C(NO)C1(S(=O)(=O)c2ccc(OCc3ccccc3)cc2)CCN(Cc2ccccc2)CC1`, the melting point came out at 89 °C.

On to `Cc1nccc(N2CCN(C(=O)N3CCN(C(=O)OC(C)(C)C)CC3)CC2)n1`, for which the melting point lay in the range of 212 to 213 °C.

`C=CCNC(=NC#N)Nc1ccc(C2=NNC(=O)CC2C)cc1` (stereo not given) registered a melting point of 224 to 226 °C.

In turn, `Cc1cccc(N2CC(C)C(N)=N2)n1` (stereo not given) showed a melting point of 181 to 185 °C.

Molecule `O=C1NCC2=C1c1ccc(Cl)cc1C(c1ccccc1Cl)=NC2` displayed a melting point of 195 to 197 °C.

For `O=C1c2cc(O)ccc2OCC1Cc1cccnc1` (stereo not given), the melting point is 163 to 166 °C.

For `Cc1cc(N)cc(C)c1C(=O)Cc1ccccc1C(F)(F)F`, the melting point was 168 °C.

`NS(=O)(=O)c1cc2cc[nH]c(=O)c2s1` displayed a melting point of 295 to 297 °C.

In the case of `CSc1cc(Oc2cccc(C(F)(F)F)c2)nc(C(=O)O)c1`, the melting point was 54 to 57 °C.

`O=S(=O)(Oc1ccc2ncc3c(c2c1)CCCC3)C(F)(F)F` had a melting point of 80 to 81 °C.

`COC(=O)c1ccc(-c2nnc(-c3ccc(C(C)(C)C)cc3)o2)c([N+](=O)[O-])c1` came in with a melting point of 142 to 143 °C.

Regarding `COc1ccc(C#CC(O)c2cccc(CN(O)C(N)=O)c2)cc1OC` (stereo not given), the melting point was determined as 146 °C.

As for `CC(C)(C)c1nc2cc(N3CCN(S(C)(=O)=O)CC3)c([N+](=O)[O-])cc2s1`, the melting point was in the range of 195 to 197 °C.

`O=C(O)c1ccc(-c2nn(Cc3ccccc3)c3ccccc23)o1`: the melting point fell in the range of 200 to 202 °C.

In turn, `CC(O)c1coc2cc(NS(C)(=O)=O)c(Oc3ccccc3)cc2c1=O` (stereo not given) returned a melting point of 136 to 138 °C.

As for `CC(=O)NCC[C@@H]1CCc2ccc3nn(C)c(F)c3c21`, the melting point is 155 to 156 °C.

As to `CN(C(=S)c1ccc([N+](=O)[O-])cc1)C1CCN(C2CCCCC2)C1` (stereo not given), the melting point was 108 to 110 °C.

`COc1cccc(-c2nc(-c3ccccc3)c3ncc(-c4cccc5ccccc45)cc3n2)c1`: the melting point was in the range of 166 to 167 °C.

Turning to `COCc1ccc(OC)c(Br)c1O`, the melting point lay within 98 to 100 °C.

`CCOC(=O)c1cn(C)c2cc(OC)ccc2c1=O` showed a melting point of 198 to 200 °C.

`CS(=O)(=O)c1ccc(Oc2ccc(Cl)c(Cl)c2)c(Cl)c1` registered a melting point of 102 to 104 °C.

`Cc1oc(-c2ccccc2)nc1CCc1nc(COc2cccc(CC(=O)O)c2)cs1`: the melting point was in the range of 153 to 154 °C.

As for `C=CCCn1cnc2c1c(=O)n(CCCC)c(=O)n2CCCC`, the melting point lay in the range of 41 to 42 °C.

As for `COc1cccc(NC(=O)C(C)(C)C)c1`, the melting point was 126 °C.

For the molecule `COc1c2c(cc3ccncc13)OCO2`, the melting point is 144 to 145 °C.

Molecule `COc1cc(OC)c2c(=O)[nH]c(-c3cc(C)c(OCCO)c(C)c3)cc2n1` came in with a melting point of 225 °C.

With `CCOC(=O)C1C(=O)CC(C)(O)C(C(=O)OCC)C1c1cccc2oc3c(c12)CCCC3` (stereo not given), the melting point fell in the range of 155 to 157 °C.

Consider `CCn1nc2c(N)nc3ccccc3c2c1CC1(F)CCOCC1`, for which the melting point fell in the range of 275 to 277 °C.

As for `CCOC(=O)CSc1nc(Cl)cc(Nc2ccc(-c3ccccc3)cc2)n1`, the melting point was in the range of 110 to 112 °C.

The molecule `CCCCCCCN(CC(c1ccccc1)c1ccccc1)C(=O)Nc1ccc(F)cc1F` returned a melting point of 76 to 78 °C.

`O=C(O)CSc1nccn1Cc1cc(F)cc(F)c1` registered a melting point of 101 to 103 °C.

The molecule `COc1ccc(OC2COc3ccc(OC(C)c4ccc5ccccc5n4)cc3C2O)cc1` (stereo not given) came in with a melting point of 81 to 85 °C.

Molecule `N#CCC(=O)c1cccn1Cc1ccccc1` showed a melting point of 119 to 120 °C.

The molecule `CCC(CC)c1ccc(Cl)c2nc3n(c12)CCCCN3c1cccc2c1OC(F)(F)O2` yielded a melting point of 156 to 158 °C.

`CSCCn1c(C)nc2c(N)nc3ccccc3c21` displayed a melting point of 193 to 195 °C.

Molecule `O=c1c(Cc2ccncc2)c(-c2ccccc2)[nH]c2ccccc12` registered a melting point of 222 to 224 °C.

In the case of `O=C(N[C@H]1CC[C@H](CCN2CCN(c3nccc4c3OCC4)CC2)CC1)c1ccc(-n2cccc2)cc1`, the melting point worked out at 236 °C.

As for `S=C(N/N=C/c1cccnc1)Nc1ccccc1`, the melting point was 208 to 210 °C.

With `CCc1ccc(C2C(=O)Oc3ccccc32)cc1` (stereo not given), the melting point is 127 to 132 °C.

On to `O=C(CC1CCCCC1=O)c1ccc(O)cc1` (stereo not given), for which the melting point is 120 to 125 °C.

On to `CC1(C)CON(Cc2ccc(N3C(=O)c4ccccc4C3=O)cc2Cl)C1=O`, for which the melting point is 141 to 145 °C.

With `CS(=O)(=O)c1ccc(-c2cnn(CC(F)(F)F)c(=O)c2Oc2cccnc2)cc1`, the melting point was 191 to 193 °C.

For `CC#CCc1c(C)nc2cc(C)nn2c1N`, the melting point lay within 215 to 219 °C.

`CN(C)C=C(C#N)C=O` gave a melting point of 140 to 141 °C.

On to `Cc1cc(C2=NN(C(=S)Cl)[C@H](C)Cc3cc4c(cc32)OCO4)ccc1[N+](=O)[O-]`, for which the melting point lay within 193 to 196 °C.

`N#CN=C(Nc1cccnc1)NC(CC12CC3CC(CC(C3)C1)C2)NC(=O)c1ccc(Cl)cc1` (stereo not given) came in with a melting point of 202 to 203 °C.

The molecule `CCCOC(=O)C1=C(C)NC(C=O)=C(C(=O)OC)C1c1ccccc1C#N` (stereo not given) showed a melting point of 138 to 141 °C.

On to `CCCCCCCCc1ccc(-c2ccc(COc3ccc(OCC(C)OC(=O)OCCCC)cc3)cc2)cc1` (stereo not given), for which the melting point is 94 °C.

`CCCSc1sc(C(=O)N2CCCC2)c2c1-c1oncc1C(C)(C)C2` returned a melting point of 72 to 76 °C.

In turn, `CCOCCn1c(CN2CCN(Cc3ccccc3)CC2C)nc2cccnc21` (stereo not given) displayed a melting point of 91.2 °C.

As to `CN(CCNC(=O)NCCCOc1cccc(CN2CCCCC2)c1)CCC(c1ccc(Cl)cc1)c1ccccn1` (stereo not given), the melting point was 99 to 105 °C.

`O=C(c1ccccc1)c1cccc(OCCn2ccnc(N3CCNCC3)c2=O)c1` showed a melting point of 69 to 70 °C.

For the molecule `Cc1c(Cc2cc(=O)n(C3CCCCC3)[nH]2)c2ccccc2n1C(=O)c1ccc(Cl)cc1`, the melting point was 98 °C.

Consider `O=[N+]([O-])c1ccc2c(c1)Sc1cc(I)ccc1N2`, for which the melting point was over 250 °C.

Molecule `CC1(C)CCC(C)(C)c2cc(C(=O)c3ccc4cc(C(=O)O)ccc4c3)ccc21` registered a melting point of 224 °C.

In turn, `CCOC(=O)c1nc2scc(CNC(=O)c3ccc(C(=O)OC)cc3)c2c(=O)[nH]1` came in with a melting point of 236 °C.

In turn, `COC(=O)Cc1ccc(C#N)cc1` had a melting point of 40 to 41 °C.

`CC(OC(=O)c1ccccc1)C(N)=S` (stereo not given) gave a melting point of 100 to 101 °C.

In turn, `CC1(O[Si](C)(C)C(C)(C)C)CN(c2ccc(N3C[C@H](CO)OC3=O)cc2F)C1` returned a melting point of 144 °C.

`CC(C)(C)OC(=O)c1nc(-c2ccccc2)[nH]c1C1CCCCC1` had a melting point of 222 to 223 °C.

Regarding `Cc1onc(-c2ccccc2)c1-c1[nH]c2ccccc2c1CCCN(C)C`, the melting point is 156 to 157 °C.

Regarding `CSc1nn2c(O)cc(C)nc2c1S(=O)(=O)c1ccc(C)cc1`, the melting point is over 230 °C.

On to `CCOC(=O)C1=C(C)NC(N=CCN(C)C)=C(C(=O)OCC)C1c1ccccc1` (stereo not given), for which the melting point was found to be 126 °C.

As usually defined, the melting point is the temperature, or range, at which the solid turns liquid.

The record behind these values is a melting point compilation (Tetko et al.; mined from patent text by program, amines drawn as free bases though some values may be those of a salt).
